Results published in ChEMBL document CHEMBL1125599, “Cholinergic activity of acetylenic imidazoles and related compounds” (J Med Chem, 1991).

How the values were obtained:
[1] = test system: Mus musculus; assay: ED50 value as cholinergic agonism by measuring lacrimation in mice (in vivo); format: functional
[2] = test system: Mus musculus; assay: ED50 value determined as oxotremorine antagonism by measuring lacrimation in mice (in vivo); format: functional
[3] = target: Muscarinic acetylcholine receptor; assay: Binding affinity to muscarinic acetylcholine receptor was determined in presence of [3H]QNB radioligand (in vitro); format: protein assay
[4] = test system: Mus musculus; assay: ED50 value as cholinergic agonist by measuring salivation in mice (in vivo); format: functional
[5] = target: Muscarinic acetylcholine receptor; assay: Binding affinity to muscarinic acetylcholine receptor was determined in presence of [3H]OXO-M radioligand (in vitro); format: protein assay
[6] = test system: Mus musculus; assay: ED50 value determined as oxotremorine antagonism by measuring salivation in mice (in vivo); format: functional
[7] = test system: Mus musculus; assay: ED50 value determined as oxotremorine antagonism by measuring tremors in mice (in vivo); format: functional
[8] = test system: Mus musculus; assay: ED50 value as cholinergic agonist by measuring tremors in mice (in vivo); format: functional
[9] = target: Muscarinic acetylcholine receptor (Rattus norvegicus) (UniProt P08482+P08483+P08485+P08911+P10980); assay: Ratio of Ki value for QNB to that of Ki value for Oxo-M.; format: protein assay

SMILES | ED50 [1] | ED50 [2] | Ki [3] | ED50 [4] | Ki [5] | ED50 [6] | ED50 [7] | ED50 [8] | Ki ratio [9]
CC(=O)NCC#CCn1ccnc1 | > 100 mg/kg | > 100 mg/kg | > 10000 nM | > 100 mg/kg | 187 nM | > 100 mg/kg | > 100 mg/kg | – | –
Cn1ccn(CC#CCN2CCCC2)c1=O | 6.6 mg/kg | > 10 mg/kg | 510 nM | 6.6 mg/kg | 7.1 nM | > 10 mg/kg | – | 3.7 mg/kg | 72
CC(=O)NCC#CCn1cncc1C | 66 mg/kg | 66 mg/kg | > 10000 nM | > 100 mg/kg | 213 nM | 66 mg/kg | > 100 mg/kg | – | –
O=C1CCCN1CC#CCn1cnc2ccccc21 | > 100 mg/kg | 80 mg/kg | > 10000 nM | > 100 mg/kg | > 10000 nM | > 100 mg/kg | > 100 mg/kg | > 100 mg/kg | –
Cc1cncn1CC#CCN1CCNC1=O | > 100 mg/kg | 21 mg/kg | > 10000 nM | > 100 mg/kg | 138 nM | 66 mg/kg | > 100 mg/kg | – | –
CN(C)CC#CCn1ccn(C)c1=O | 8 mg/kg | > 100 mg/kg | > 10000 nM | 8 mg/kg | 37 nM | > 100 mg/kg | – | 5.4 mg/kg | –
COC(=O)N(C)CC#CCN(C)C | 9.7 mg/kg | > 30 mg/kg | > 10000 nM | 14.3 mg/kg | 19 nM | > 30 mg/kg | > 30 mg/kg | 17.3 mg/kg | –
CN1CCN(CC#CCn2ccnc2)C1=O | 1.4 mg/kg | > 100 mg/kg | 1868 nM | 1.4 mg/kg | 2.1 nM | > 100 mg/kg | – | 0.97 mg/kg | 890
CC(=O)N(C)C(C)C#CCn1ccnc1 (configuration not stated) | 3 mg/kg | > 100 mg/kg | 1500 nM | 3 mg/kg | 12 nM | > 100 mg/kg | – | 2 mg/kg | 125
CCOC(=O)N(C)CC#CCn1ccnc1 | > 100 mg/kg | 97 mg/kg | > 10000 nM | > 100 mg/kg | 206 nM | 97 mg/kg | > 100 mg/kg | > 100 mg/kg | –
CN(C)CC#CCN1CCNC1=O | 9.7 mg/kg | > 100 mg/kg | > 10000 nM | 9.7 mg/kg | 43 nM | > 100 mg/kg | – | 9.7 mg/kg | –
Cc1cncn1CC#CCN(C)C(=O)N(C)C | > 100 mg/kg | 9.7 mg/kg | > 10000 nM | – | 82 nM | 11.8 mg/kg | > 100 mg/kg | 45.2 mg/kg | –
CC(C#CCN1CCCC1)N1CCN(C)C1=O (configuration not stated) | > 30 mg/kg | 4.5 mg/kg | 130 nM | > 30 mg/kg | 13 nM | 25 mg/kg | – | > 30 mg/kg | 10
COC(=O)N(C)CC#CCn1ccnc1 | 4.5 mg/kg | > 100 mg/kg | > 10000 nM | 4.5 mg/kg | 10.2 nM | > 100 mg/kg | – | 2 mg/kg | –
CC(=O)N(C)C(C)C#CCn1cncc1C (configuration not stated) | > 100 mg/kg | 1.1 mg/kg | 184 nM | > 100 mg/kg | 10 nM | 3.7 mg/kg | – | > 100 mg/kg | 18
CC(=O)N(C)C(C)C#CCn1ccnc1C (configuration not stated) | > 100 mg/kg | 0.05 mg/kg | 19 nM | > 100 mg/kg | 1.6 nM | 0.2 mg/kg | – | > 100 mg/kg | 12
CCc1nccn1CC#CCN1CCCC1=O | > 100 mg/kg | 0.54 mg/kg | 56.9 nM | > 100 mg/kg | 29.1 nM | 2.5 mg/kg | – | > 100 mg/kg | 2
CC(C#CCn1ccnc1)N1CCCC1=O (configuration not stated) | > 100 mg/kg | 2 mg/kg | 556 nM | > 100 mg/kg | 33.5 nM | 3.7 mg/kg | – | > 100 mg/kg | 17
O=C1CCCN1CC#CCn1ccnc1 | 0.45 mg/kg | > 100 mg/kg | 600 nM | 0.45 mg/kg | 1.3 nM | > 100 mg/kg | – | 0.45 mg/kg | 460
CN(C)C(=O)N(C)CC#CCn1ccnc1 | – | 11.8 mg/kg | > 10000 nM | 25.4 mg/kg | 14.6 nM | > 100 mg/kg | > 100 mg/kg | 11.8 mg/kg | –
O=C1NCCN1CC#CCn1ccnc1 | 30 mg/kg | > 100 mg/kg | > 10000 nM | 17.3 mg/kg | 62 nM | > 100 mg/kg | > 100 mg/kg | – | –
O=C1CCCN1CC#CCN1CCCC1 [OXOTREMORINE] | 0.28 mg/kg | – | 193 nM | 0.221 mg/kg | – | – | – | – | 386
Cn1ccn(CC#CCn2ccnc2)c1=O | 4.4 mg/kg | > 100 mg/kg | > 10000 nM | 3.7 mg/kg | 35 nM | > 100 mg/kg | – | 4.5 mg/kg | –
Cc1cn(CC#CCN2CCCC2=O)c(C)n1 | > 100 mg/kg | 8 mg/kg | 160 nM | > 100 mg/kg | 68 nM | 14.2 mg/kg | – | > 100 mg/kg | 2.4
CC(=O)N(C)C(C)C#CCN1CCCC1 (configuration not stated) | 0.66 mg/kg | > 10 mg/kg | – | 0.55 mg/kg | – | > 10 mg/kg | – | > 10 mg/kg | –
CN(C)CC#CCN1CCN(C)C1=O | 0.54 mg/kg | > 10 mg/kg | 180 nM | 0.54 mg/kg | 4.5 nM | > 10 mg/kg | – | 0.37 mg/kg | 40
CN(C)CC#CCN1CCCC1=O | – | – | 2600 nM | – | 1.1 nM | – | – | – | 2360
CC(=O)N(C)CC#CCn1ccnc1 | 1.4 mg/kg | > 100 mg/kg | > 10000 nM | 1.4 mg/kg | 1.92 nM | > 100 mg/kg | – | 0.97 mg/kg | –
CC1CCC(=O)N1CC#CCn1ccnc1 (configuration not stated) | > 100 mg/kg | 0.54 mg/kg | 171 nM | > 100 mg/kg | 23 nM | 1.1 mg/kg | – | > 100 mg/kg | 7.4
CN1CCN(CC#CCN2CCCC2)C1=O | 0.3 mg/kg | > 3 mg/kg | 180 nM | 0.21 mg/kg | 2.7 nM | > 3 mg/kg | – | 0.14 mg/kg | 67
